Experiments:
[1] = target: RAC-alpha serine/threonine-protein kinase (Homo sapiens, UniProt P31749); assay: Inhibition of Akt phosphorylation in human insulin-stimulated A549 cells incubated for 2 hrs prior to insulin-induction measured after 30 mins by ELISA; assay type: cell-based
[2] = Cytotoxicity against human KATO III cells by flow cytometric analysis; assay type: functional, cell-based, KATO III cell
MCF7 = assay: Cytotoxicity against human MCF7 cells by flow cytometric analysis; assay type: functional, cell-based
A549 [3] = assay: Ratio of miltefosine IC50 to compound IC50 for human A549 cells; assay type: functional
A549 [4] = assay: Ratio of edelfosine IC50 to compound IC50 for human A549 cells; assay type: functional
A549 [5] = assay: Ratio of perifosine IC50 to compound IC50 for human A549 cells; assay type: functional
A549 [6] = assay: Cytotoxicity against human A549 cells by flow cytometric analysis; assay type: functional, cell-based

Sequence of RAC-alpha serine/threonine-protein kinase (P31749 whole entry): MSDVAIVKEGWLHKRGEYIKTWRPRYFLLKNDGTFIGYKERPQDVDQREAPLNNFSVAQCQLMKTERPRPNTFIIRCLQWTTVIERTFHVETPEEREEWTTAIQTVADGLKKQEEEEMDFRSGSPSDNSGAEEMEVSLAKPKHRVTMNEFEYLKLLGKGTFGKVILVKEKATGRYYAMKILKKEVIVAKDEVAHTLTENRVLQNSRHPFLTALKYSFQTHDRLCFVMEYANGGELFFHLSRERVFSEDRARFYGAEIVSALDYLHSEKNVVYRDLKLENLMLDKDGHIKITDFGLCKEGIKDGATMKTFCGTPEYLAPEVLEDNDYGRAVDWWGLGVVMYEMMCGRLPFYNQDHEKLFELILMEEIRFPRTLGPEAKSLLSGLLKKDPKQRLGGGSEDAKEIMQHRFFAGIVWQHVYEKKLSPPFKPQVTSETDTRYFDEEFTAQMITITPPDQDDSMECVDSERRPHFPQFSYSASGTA

CCCCCCCCCCCCC[C@@]1(C(=O)OCC)CCC[C@H]1OP(=O)([O-])OCC[N+](C)(C)C (racemic)
IC50 [1]: 3.1 µM | IC50 [2]: 14.1 µM | IC50 (MCF7): 11.2 µM | Ratio IC50 (A549 [3]): 4 | Ratio IC50 (A549 [4]): 4 | Ratio IC50 (A549 [5]): 4 | IC50 (A549 [6]): 2 µM

CCCCCCCCCCCCCCCC[C@@]1(C(=O)OCC)CCC[C@H]1OP(=O)([O-])OCC[N+](C)(C)C (racemic)
IC50 [1]: 2 µM | IC50 [2]: 7.9 µM | IC50 (MCF7): 5.6 µM | Ratio IC50 (A549 [3]): 4 | Ratio IC50 (A549 [4]): 4 | Ratio IC50 (A549 [5]): 4 | IC50 (A549 [6]): 1.6 µM

CCCCCCCCCCCCCCCCCC[C@@]1(C(=O)OCC)CCC[C@H]1OP(=O)([O-])OCC[N+](C)(C)C (racemic)
IC50 [1]: 10.9 µM | IC50 [2]: 15 µM | IC50 (MCF7): 13.1 µM | IC50 (A549 [6]): 6.2 µM

CCCCCCCCCCCCCCCCCCCC[C@@]1(C(=O)OCC)CCC[C@H]1OP(=O)([O-])OCC[N+](C)(C)C (racemic)
IC50 [1]: 7 µM | IC50 [2]: 11.1 µM | IC50 (MCF7): 9.7 µM | IC50 (A549 [6]): 13.6 µM

CCCCCCCCCCCCCCCCCCCCCC[C@@]1(C(=O)OCC)CCC[C@H]1OP(=O)([O-])OCC[N+](C)(C)C (racemic)
IC50 [1]: 5.5 µM | IC50 [2]: 10.4 µM | IC50 (MCF7): 16.8 µM | IC50 (A549 [6]): 6.9 µM

CCCCCCCCCCCCC[C@@]1(C(=O)OCC)CCC[C@@H]1OP(=O)([O-])OCC[N+](C)(C)C (racemic)
IC50 [1]: 6.2 µM | IC50 [2]: 9.7 µM | IC50 (MCF7): 4.5 µM | IC50 (A549 [6]): 2.7 µM

CCCCCCCCCCCCCCCC[C@@]1(C(=O)OCC)CCC[C@@H]1OP(=O)([O-])OCC[N+](C)(C)C (racemic)
IC50 [1]: 5 µM | IC50 [2]: 10.6 µM | IC50 (MCF7): 11.1 µM | IC50 (A549 [6]): 3.6 µM

CCCCCCCCCCCCCCCCCC[C@@]1(C(=O)OCC)CCC[C@@H]1OP(=O)([O-])OCC[N+](C)(C)C (racemic)
IC50 [1]: 3 µM | IC50 [2]: 9.9 µM | IC50 (MCF7): 7.5 µM | IC50 (A549 [6]): 4.6 µM

CCCCCCCCCCCCCCCCCCCC[C@@]1(C(=O)OCC)CCC[C@@H]1OP(=O)([O-])OCC[N+](C)(C)C (racemic)
IC50 [1]: 6.9 µM | IC50 [2]: 10.9 µM | IC50 (MCF7): 16 µM | IC50 (A549 [6]): 7.2 µM

CCCCCCCCCCCCCCCCCCCCCC[C@@]1(C(=O)OCC)CCC[C@@H]1OP(=O)([O-])OCC[N+](C)(C)C (racemic)
IC50 [1]: 19.1 µM | IC50 [2]: 11.4 µM | IC50 (MCF7): 7.6 µM | IC50 (A549 [6]): 17.8 µM

CCCCCCCCCCCCCCCCCCOCC(COP(=O)([O-])OCC[N+](C)(C)C)OC (configuration not stated) [EDELFOSINE]
IC50 [1]: 3.5 µM | IC50 [2]: 12.8 µM | IC50 (MCF7): 9.3 µM | IC50 (A549 [6]): 7.4 µM

CCCCCCCCCCCCCCCCOP(=O)([O-])OCC[N+](C)(C)C [MILTEFOSINE]
IC50 [1]: 9.6 µM

CCCCCCCCCCCCCCCCCCOP(=O)([O-])OC1CC[N+](C)(C)CC1 [PERIFOSINE]
IC50 [1]: 5.3 µM

— ChEMBL document CHEMBL2346609, “Synthesis, characterization and Akt phosphorylation inhibitory activity of cyclopentanecarboxylate-substituted alkylphosphocholines” (Bioorg Med Chem, 2013)
